A word on the inhibition: it is the change of the read-out against control, counted positive when it falls.

The source of these data is patent EP3335764A1, “A STRAIN OF A[…] APPLICATIONS THEREOF” (Infinitec Activos S.L., priority 2016, dated 2018).

The experiment has as its system Prostaglandin E2 (PGE2). Nature of the experiment: Anti-inflammatory activity: PGE2 quantification by ELISA in cells stimulated by IL-1α. It is filed as cell-based. The note with it: IL-1α (5 pM), Cycloheximide 100 µg/ml. The method, then:
When cells are stimulated by an inflammatory agent PGE2 is synthesized de novo and released into the extracellular space. Thus quantification of PGE2 is used to asses the anti-inflammatory activity products.
In the present example the anti-inflammatory activity of the extract of example 2 was determined by quantification of PGE2 in cells stimulated by IL-1α using a kit for an enzyme-linked immunosorbent assay (ELISA). The kit used was Prostaglandin E2 EIA kit Item n° 514010 from Cayman Chemical.
Prostaglandin E2 assay is based on competition between the PGE^2 to be determined and a fixed amount of added PGE2-acetylcholinesterase (AChE) conjugate (PGE2 tracer) for a limited amount of PGE2 monoclonal antibody. The amount of PGE2 tracer able to bind the PGE2 monoclonal antibody will be inversely proportional to the concentration of PGE2 in the well. Both the antibody-PGE2 complex and then antibody-PGE2 tracer complex bind to polyclonal goat anti-mouse IgG previously bound to the well. Then the plate is washed to remove any unbound reagent and Ellman's reagent is added to determine the amount of AChE bound to the well. […] The intensity of this color, determined by UV-Vis spectrophotometry, is proportional to the amount of PGE2 tracer bound […], which is inversely proportional to the amount of PGE2 present in the free well during incubation.
(An ELISA detects its analyte on a solid surface through an enzyme-linked reagent.)

With `C[C@@H]1C[C@@H]([C@H](O)CC2CC(=O)NC(=O)C2)C(=O)[C@@H](C)C1` [Cycloheximide], the “PGE2” value stood at 31.85 pg/mL and the inhibition at 100 µg/mL worked out at 97.6%.
